Molecular target: human Kv1.3 (Homo sapiens (Human), UniProt P22001)
Assay: Kv1.3 potency evaluation, automated patch clamp electrophysiology (QPatch HT) in CHO-Kv1.3 cells
Format: cell-based
Conditions: whole-cell QPatch HT, % inhibition of charge, step to +30 mV, four concentrations, N≥3 cells, read-out: hKv1.3 IC50
Procedure, shortened: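 Automated whole-cell patch clamp in CHO cells stably expressing human Kv1.3; steps from −80 to +30 mV (500 ms) at 0.067 Hz. Four cumulative concentrations after vehicle (0.1-0.3% DMSO); charge inhibition vs vehicle fitted by four-parameter logistic for IC50, N≥3 cells.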

human Kv1.3, sequence (P22001 whole entry): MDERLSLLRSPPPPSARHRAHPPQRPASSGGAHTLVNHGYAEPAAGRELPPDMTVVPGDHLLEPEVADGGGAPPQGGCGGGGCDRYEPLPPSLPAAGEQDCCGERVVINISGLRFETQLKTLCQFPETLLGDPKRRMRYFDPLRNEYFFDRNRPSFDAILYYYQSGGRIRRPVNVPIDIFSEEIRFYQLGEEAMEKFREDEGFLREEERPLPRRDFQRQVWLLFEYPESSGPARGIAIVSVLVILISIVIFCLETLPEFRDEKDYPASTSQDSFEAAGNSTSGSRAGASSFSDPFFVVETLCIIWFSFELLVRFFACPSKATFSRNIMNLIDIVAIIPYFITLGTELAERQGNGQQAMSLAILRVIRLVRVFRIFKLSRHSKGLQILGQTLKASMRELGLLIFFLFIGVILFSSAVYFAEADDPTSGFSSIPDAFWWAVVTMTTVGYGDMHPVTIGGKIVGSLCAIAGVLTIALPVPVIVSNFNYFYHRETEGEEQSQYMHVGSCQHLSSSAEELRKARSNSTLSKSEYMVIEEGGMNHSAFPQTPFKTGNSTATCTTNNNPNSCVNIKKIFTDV

Row | Structure (SMILES) | IC50 [nM]
1 | CC1(NC(=O)[C@@]2(C)CN=C(C34CC(N(Cc5ccc(C(F)(F)F)cc5)S(=O)(=O)c5ccc(F)cc5)(C3)C4)N2)CCC1 (mixture of isomers) [Example 228] | 190
2 | CN(C)C(=O)[C@]1(C)CN=C(C23CC(N(Cc4ccc(C(F)(F)F)cc4)S(=O)(=O)c4ccc(F)cc4)(C2)C3)N1 (mixture of isomers) [Example 230] | 201
3 | CC1(C)N=C(C23CC(N(Cc4ccc(Cl)cc4)S(=O)(=O)CC4CC(F)(F)C4)(C2)C3)N[C@H]1C(=O)NCCC(F)(F)F (mixture of isomers) [Example 231] | 205
4 | CC1(C)N=C(C23CC(N(Cc4ccc(Cl)c(F)c4)S(=O)(=O)c4ccccc4)(C2)C3)N[C@H]1C(=O)NCC(O)C(F)(F)F (mixture of isomers) [Example 233] | 209
5 | C[C@]1(C(=O)N2CC3CC3C2)CN=C(C23CC(N(Cc4ccc(C(F)(F)F)cc4)S(=O)(=O)c4ccc(F)cc4)(C2)C3)N1 (mixture of isomers) [Example 234] | 211
6 | CC(NC(=O)[C@@]1(C)CN=C(C23CC(N(Cc4ccc(C(F)(F)F)cc4)S(=O)(=O)c4ccc(F)cc4)(C2)C3)N1)C1CCC1 (mixture of isomers) [Example 238] | 221
7 | CC(C)NC(=O)[C@H]1NC(C23CC(N(Cc4ccc(Cl)c(F)c4)S(=O)(=O)c4ccccc4)(C2)C3)=NC1(C)C (mixture of isomers) [Example 240] | 235
8 | Cn1ccc(S(=O)(=O)N(Cc2ccc(Cl)cc2)C23CC(C4=NC(C)(C)[C@H](C(=O)NCCC(F)(F)F)N4)(C2)C3)n1 (mixture of isomers) [Example 241] | 243
9 | CC1(C)N=C(C23CC(N(Cc4ccc(Cl)c(F)c4)S(=O)(=O)c4ccccc4)(C2)C3)N[C@H]1C(=O)NC12CC(C(F)(F)F)(C1)C2 (mixture of isomers) [Example 242] | 248
10 | CC(C)NC(=O)[C@@]1(C)CN=C(C23CC(N(Cc4ccccc4)S(=O)(=O)c4ccc(F)cc4)(C2)C3)N1 (mixture of isomers) [Example 243] | 251
11 | C[C@]1(C(=O)N2CCCCC2)CN=C(C23CC(N(Cc4ccc(C(F)(F)F)cc4)S(=O)(=O)c4ccc(F)cc4)(C2)C3)N1 (mixture of isomers) [Example 244] | 252
12 | CC1N=C(C23CC(N(Cc4ccc(C(F)(F)F)cc4)S(=O)(=O)c4ccc(F)cc4)(C2)C3)N[C@@]1(C)C(=O)NCC1CCC1 (mixture of isomers) [Example 245] | 253
13 | CC1(C)N=C(C23CC(N(Cc4ccc(C#N)cc4)S(=O)(=O)c4ccccc4)(C2)C3)N[C@H]1C(=O)NCCC(F)(F)F (mixture of isomers) [Example 246] | 258
14 | C[C@@]1(C(=O)NCC2CCC2)CN=C(C23CC(N(Cc4ccc(C(F)(F)F)cc4)S(=O)(=O)c4ccc(F)cc4)(C2)C3)N1 (mixture of isomers) [Example 247] | 262
15 | CC1(C)N=C(C23CC(N(Cc4ccc(Cl)c(F)c4)S(=O)(=O)c4ccccc4)(C2)C3)N[C@@H]1C(=O)N1CCC(F)(F)CC1 (mixture of isomers) [Example 248] | 275
16 | CC1(C)N=C(C23CC(N(Cc4ccc(Cl)c(F)c4)S(=O)(=O)c4ccccc4)(C2)C3)N[C@H]1C(=O)N1CC2(CCC2(F)F)C1 (mixture of isomers) [Example 249] | 280
17 | CC(C)NC(=O)[C@@]1(C)CN=C(C23CC(N(Cc4ccc(C(F)(F)F)cc4)S(=O)(=O)c4ccc(F)cc4)(C2)C3)N1 (mixture of isomers) [Example 250] | 286
18 | CC1(C)N=C(C23CC(N(Cc4ccc(C(F)(F)F)cc4)S(=O)(=O)c4ccc(F)cc4)(C2)C3)N[C@@H]1C(=O)NCCC(F)(F)F (mixture of isomers) [Example 251] | 307

Row | Structure (SMILES) | IC50 [nM]
19 | CC(C)S(=O)(=O)N(Cc1ccc(Cl)cc1)C12CC(C3=NC(C)(C)[C@H](C(=O)NCCC(F)(F)F)N3)(C1)C2 (mixture of isomers) [Example 252] | 317
20 | C[C@]1(C(=O)N2CC3(CCC3)C2)CN=C(C23CC(N(Cc4ccc(C(F)(F)F)cc4)S(=O)(=O)c4ccc(F)cc4)(C2)C3)N1 (mixture of isomers) [Example 253] | 323
21 | CC(C)NC(=O)[C@@]1(C)CN=C(C23CC(N(Cc4ccc(C(F)(F)F)cc4)S(=O)(=O)c4ccccc4)(C2)C3)N1 (mixture of isomers) [Example 254] | 333
22 | CC1(C)N=C(C23CC(N(Cc4ccc(C(F)(F)F)cc4)S(=O)(=O)c4ccc(F)cc4)(C2)C3)N[C@@]1(C)C(=O)NCCC(F)(F)F (mixture of isomers) [Example 255] | 341
23 | CN(CC1CCC1)C(=O)[C@@]1(C)CN=C(C23CC(N(Cc4ccc(C(F)(F)F)cc4)S(=O)(=O)c4ccc(F)cc4)(C2)C3)N1 (mixture of isomers) [Example 256] | 342
24 | CC1(C)N=C(C23CC(N(Cc4ccc(Cl)c(F)c4)S(=O)(=O)c4ccccc4)(C2)C3)N[C@H]1C(=O)N1CCOCC1 (mixture of isomers) [Example 257] | 348
25 | CC(C)NC(=O)[C@@]1(C)CN=C(C23CC(N(Cc4ccccc4)S(=O)(=O)c4ccccc4)(C2)C3)N1 (mixture of isomers) [Example 258] | 362
26 | C[C@]1(C(=O)NCC(F)(F)F)CN=C(C23CC(N(Cc4ccc(C(F)(F)F)cc4)S(=O)(=O)c4ccc(F)cc4)(C2)C3)N1 (mixture of isomers) [Example 260] | 370
27 | COCCS(=O)(=O)N(Cc1ccc(Cl)cc1)C12CC(C3=NC(C)(C)[C@H](C(=O)NCCC(F)(F)F)N3)(C1)C2 (mixture of isomers) [Example 261] | 386
28 | C[C@]1(C(=O)N2CCCC2)CN=C(C23CC(N(Cc4ccc(C(F)(F)F)cc4)S(=O)(=O)c4ccc(F)cc4)(C2)C3)N1 (mixture of isomers) [Example 262] | 395
29 | CC1(C)CCN(C(=O)[C@@]2(C)CN=C(C34CC(N(Cc5ccc(C(F)(F)F)cc5)S(=O)(=O)c5ccc(F)cc5)(C3)C4)N2)C1 (mixture of isomers) [Example 264] | 404
30 | CC1N=C(C23CC(N(Cc4ccc(C(F)(F)F)cc4)S(=O)(=O)c4ccc(F)cc4)(C2)C3)N[C@@]1(C)C(=O)NCCC(F)(F)F (mixture of isomers) [Example 265] | 408
31 | CC1(CNC(=O)[C@@]2(C)CN=C(C34CC(N(Cc5ccc(C(F)(F)F)cc5)S(=O)(=O)c5ccc(F)cc5)(C3)C4)N2)CCC1 (mixture of isomers) [Example 267] | 424
32 | C[C@]1(C(=O)NC2CCCCC2)CN=C(C23CC(N(Cc4ccc(C(F)(F)F)cc4)S(=O)(=O)c4ccc(F)cc4)(C2)C3)N1 (mixture of isomers) [Example 268] | 441
33 | CN(C)C(=O)[C@@]1(C)CN=C(C23CC(N(Cc4ccc(C(F)(F)F)cc4)S(=O)(=O)c4ccc(F)cc4)(C2)C3)N1 (mixture of isomers) [Example 269] | 481
34 | C[C@]1(C(=O)NCc2ccccc2)CN=C(C23CC(N(Cc4ccc(C(F)(F)F)cc4)S(=O)(=O)c4ccc(F)cc4)(C2)C3)N1 (mixture of isomers) [Example 270] | 485
35 | CC1(C)N=C(C23CC(N(Cc4ccc(Cl)cc4)S(=O)(=O)C4CCOCC4)(C2)C3)N[C@H]1C(=O)NCCC(F)(F)F (mixture of isomers) [Example 272] | 524
36 | CC1(C)N=C(C23CC(N(Cc4ccc(Cl)cc4)S(C)(=O)=O)(C2)C3)N[C@H]1C(=O)NCCC(F)(F)F (mixture of isomers) [Example 274] | 559
